US20090170847A1, “Imidazopyridine Derivatives Inhibiting Protein Kinase Activity, Method for the Preparation Thereof and Pharmaceutical Composition Containing Same” (priority 2006, published 2009)

How the values were obtained:
Aurora Kinase A = target: T1, Aurora Kinase A (Homo sapiens, UniProt O14965); experiment: Aurora kinase A enzyme inhibition (Kemptide, Kinase glo); assay type: biochemical; conditions: 1 μM ATP
T1 construct: purchased Upstate
T1 sequence (O14965 1-403): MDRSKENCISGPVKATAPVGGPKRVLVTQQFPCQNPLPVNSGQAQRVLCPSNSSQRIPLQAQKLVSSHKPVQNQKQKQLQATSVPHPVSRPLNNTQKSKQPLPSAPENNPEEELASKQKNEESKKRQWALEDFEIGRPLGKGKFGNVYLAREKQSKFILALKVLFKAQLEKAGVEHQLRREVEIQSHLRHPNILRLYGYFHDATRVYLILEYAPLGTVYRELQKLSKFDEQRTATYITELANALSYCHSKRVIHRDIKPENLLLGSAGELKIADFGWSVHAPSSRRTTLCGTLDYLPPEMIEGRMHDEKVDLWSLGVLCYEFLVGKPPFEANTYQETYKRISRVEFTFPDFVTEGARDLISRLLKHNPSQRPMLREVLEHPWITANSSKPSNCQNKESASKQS
Procedure: The test solution prepared above by dissolving a test compound in DMSO was added to the reaction solution in an amount of less than 5% based on the total reaction solution to analyze the capacity for enzyme inhibitory activity. The cpm value obtained when the test compounds was present relative to the cpm value in the absence of the test compound was represented by percentage, and IC50 (μM) was determined as the concentration of the test compound required to inhibit the enzyme activity by 50% relatively to the control solution.
A test solution was prepared by dissolving one of the compounds of the Examples in DMSO at a concentration of 12.5 mM. Enzyme reaction was conducted in a buffer solution containing 20 mM of HEPES (pH 7.5), 5 mM MgCl2, 0.5 mM ethylene glycol bis(b-aminoethylether) tetraacetic acid (EGTA), 200 mM of KCl, 1 mM of DTT and 0.05% triton X-100. 100 μM of Kemptide peptide (Upstate) and 1 μM of ATP were added to the buffer solution as substrates. Recombinant aurora kinase (Upstate) was added the resulting mixture at a concentration of 10 nM and reaction was carried out at 30° C. for 1 hour. 25 μl of the resulting solution was mixed with 25 μl of Kinase glo (promega), thereby inducing the second reaction by luciferase. The amount of remained ATP was measured by fusion a-FP (Packard, USA). Inhibitory capacities of the test compounds for the enzyme activity were assessed according to the same method as in GSK-3β analysis, and IC50 value was calculated.

human GSK-3β = human GSK-3β (Homo sapiens, UniProt P49841); experiment: GSK-3β enzyme inhibition (32P-ATP, phospho-CREB peptide, filter paper); assay type: biochemical; conditions: 100 μM ATP, 30° C., 1 hour
Sequence of human GSK-3β (P49841 whole entry): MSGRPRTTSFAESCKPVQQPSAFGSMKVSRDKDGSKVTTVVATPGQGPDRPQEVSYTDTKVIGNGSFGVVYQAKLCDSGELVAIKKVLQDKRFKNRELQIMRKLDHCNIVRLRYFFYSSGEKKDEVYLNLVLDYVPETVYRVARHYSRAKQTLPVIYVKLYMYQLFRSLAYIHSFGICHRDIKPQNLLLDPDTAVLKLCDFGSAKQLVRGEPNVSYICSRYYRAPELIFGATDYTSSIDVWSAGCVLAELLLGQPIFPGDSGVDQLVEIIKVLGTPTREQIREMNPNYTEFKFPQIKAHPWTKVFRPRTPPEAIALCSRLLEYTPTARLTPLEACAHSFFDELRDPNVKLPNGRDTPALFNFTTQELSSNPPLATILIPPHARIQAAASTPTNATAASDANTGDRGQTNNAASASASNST
Procedure: GSK-3β was prepared by a gene recombination method.
First, primers corresponding to 5′-end and 3′-end of polynucleotide encoding human GSK-3β were designed and synthesized from nucleotide sequence of human GSK-3β (GenBank Reg. No. L33801). Then, the primers were amplified by PCR (polymerase chain reaction) in which a human DNA sequence was employed as a template and treated with restriction enzyme BamH1/XhoI. The resulting gene fragments were inserted into the corresponding identical restriction sites of pGex vector (GE Healthcare Life Science) to prepare an expression vector for transformation of E. coli BL21 (DE3) strain (Invitrogen). The transformed E. coli strain was inoculated to LB medium (1% Bacto tryptone, 0.5% yeast extract, 1% sodium chloride) and cultured until the optical density of the bacterial cells was about 0.5 at 600 nm and 37° C. Then, IPTG (isopropyl-β-D-thiogalactoside) was added thereto to a final concentration to 0.5 mM at 18° C. 16 hours after IPTG addition, the cells were subjected to centrifugation at 10,000×g for 10 mins and cell precipitates were collected. The cell precipitates were suspended in a buffer solution (30 mM tris-HCl (pH 7.5), 100 mM NaCl, 5% glycerol, 2 mM DTT) and the cells were smashed in an ice bath using a Sonic Dismembrator (Fisher, USA). The resulting solution was centrifuged at 16,000 rpm for 30 mins.
The supernatant obtained above was introduced to a pre-equilibrated GST column (Pharmacia, USA) and eluted by 5 mM glutachione. The effuent was subjected to SDS-PAGE and GSK-3β protein was collected. GST protein was cutt using thrombin. The GSK-3β protein thus obtained was diluted with a buffer solution (20 mM HEPES (pH 7.5), 5% glycerol, 2 mM DTT) until the concentration of NaCl reached 50 mM. The diluted solution was introduced to Mono S column (Pharmacia, USA) equilibrated with the above buffer solution and eluted with a aqueous NaCl while changing the concentration from 0 to 1 M NaCl, and GSK-3β protein was collected by a electrophoresis. The purified protein was used in the analysis for the activity for enzyme activity.
The enzyme reaction was conducted in a buffer solution (50 mM of tris-HCl (pH 7.5), 10 mM of MgCl2, 1 mM of EGTA, 1 mM of EDTA and 1 mM of DTT). 100 μM of phosho-CREB peptide (NEB, USA), 100 μM of ATP and 1 μCi of ^32P-ATP were added to the buffer solution as substrates. And then 100 nM of recombinant GSK-3β was added thereto and the mixture was reacted at 30° C. for 1 hour. The reaction was terminated by the addition of 5 μl of 5% phosphoric acid solution to 25 μl of the reaction mixture. The resulting solution was subjected to centrifugation at 15,000 for 10 mins and 20 μl of the supernatant thus obtained was dropped on whatman p81 filter paper. The filter paper was washed in 0.5% phosphoric acid solution for 10 mins. After repeating the washing 3 times, the filter paper was dried and its cpm (counter per mins) was assessed.
The test solution prepared above by dissolving a test compound in DMSO was added to the reaction solution in an amount of less than 5% based on the total reaction solution to analyze the capacity for enzyme inhibitory activity.

Row | SMILES | IC50 (Aurora Kinase A) [nM] | IC50 (human GSK-3β) [nM]
1 | CC1(C)C2CC[C@@]1(C)[C@@H](NC(=O)c1ccnc3[nH]c(-c4ccc(NCCN5CCOCC5)cc4)nc13)C2 [Example 368, 2-[4-(2-morpholin-4-yl-ethylamino)-phenyl]-3H-imidazo[4,5-b]pyridine-7-carboxylic acid(1,7,7-trimethyl-bicyclo[2.2.1]heptin-2-yl)-amide] | 40 | –
2 | CCSc1ccncc1NC(=O)c1ccnc2[nH]c(-c3ccc(Cl)cc3)nc12 [Example 61, 2-(4-chloro-phenyl)-3H-imidazo[4,5-b]pyridine-7-carboxylic acid(4-ethylsulfanyl-pyridin-3-yl)-amide] | – | 3
3 | O=C(NC1C2CC3CC(C2)CC1C3)c1ccnc2[nH]c(-c3ccc(F)cc3)nc12 (centres unmarked) [Example 264, 2-(4-fluoro-phenyl)-3H-imidazo[4,5-b]pyridine-7-carboxylic acid adamantan-2-ylamide] | 70 | –
4 | CN(C)CCOc1ccncc1NC(=O)c1ccnc2[nH]c(-c3ccc(F)cc3)nc12 [Example 313, 2-(4-fluoro-phenyl)-3H-imidazo[4,5-b]pyridine-7-carboxylic acid[4-(2-dimethylamino-ethoxy)-pyridin-3-yl]-amide] | 1100 | –
5 | CC(=O)Nc1ccc(CCNC(=O)c2ccnc3[nH]c(-c4ccccc4)nc23)cc1 [Example 1, 2-phenyl-3H-imidazo[4,5-b]-pyridine-7-carboxylic acid [2-(4-acetylamino-phenyl)-ethyl]-amide] | – | 20
6 | CN1CCN(c2ccc(-c3nc4c(C(=O)Nc5cccnc5)ccnc4[nH]3)cc2)CC1 [Example 327, 2-[4-(4-methyl-piperazin-1-yl)-phenyl]-3H-imidazo[4,5-b]pyridine-7-carboxylic acid pyridin-3-ylamide] | – | 50
7 | Cc1ccncc1NC(=O)c1ccnc2[nH]c(-c3ccc(N4CCCC4)cc3)nc12 [Example 332, 2-(4-pyrrolidin-1-yl-phenyl)-3H-imidazo[4,5-b]pyridine-7-carboxylic acid(4-methyl-pyridin-3-yl)-amide] | – | 12
8 | CCOc1cc(C)ncc1NC(=O)c1ccnc2[nH]c(-c3ccc(F)cc3)nc12 [Example 325, 2-(4-fluoro-phenyl)-3H-imidazo[4,5-b]pyridine-7-carboxylic acid(4-ethoxy-6-methyl-pyridin-3-yl)-amide] | – | 2
9 | O=C(NCCCc1ccncc1)c1ccnc2[nH]c(-c3cccs3)nc12 [Example 109, 2-thiophen-2-yl-3H-imidazo[4,5-b]pyridine-7-carboxylic acid(3-pyridin-4-yl-propyl)-amide] | – | 52
10 | CC(=O)Nc1ccc(CCNC(=O)c2ccnc3[nH]c(-c4ccc(Cl)cc4)nc23)cc1 [Example 44, 2-(4-chloro-phenyl)-3H-imidazo[4,5-b]pyridine-7-carboxylic acid[2-(4-acetylamino-phenyl)-ethyl]-amide] | – | 38

Second part, the compound after the results:

Row | IC50 (Aurora Kinase A) [nM] | IC50 (human GSK-3β) [nM] | SMILES
11 | > 6000 | – | CCOc1ccncc1NC(=O)c1ccnc2[nH]c(-c3ccc(OC)cc3)nc12 [Example 425, 2-(4-methoxy-phenyl)-3H-imidazo[4,5-b]pyridine-7-carboxylic acid(4-ethoxy-pyridin-3-yl)-amide]
12 | 105 | – | CCOc1cc(C)ncc1NC(=O)c1ccnc2[nH]c(-c3ccc(N4CCN(C)CC4)cc3)nc12 [Example 423, 2-[4-(4-methyl-piperazin-1-yl)-phenyl]-3H-imidazo[4,5-b]pyridine-7-carboxylic acid(4-ethoxy-6-methyl-pyridin-3-yl)-amide]
13 | 113 | – | CN1CCN(c2ccc(-c3nc4c(C(=O)NC5CC6CCC5C6)ccnc4[nH]3)cc2)CC1 (centres unmarked) [Example 371, 2-[4-(4-methyl-piperazin-1-yl)-phenyl]-3H-imidazo[4,5-b]pyridine-7-carboxylic acid bicyclo[2.2.1]heptin-2-ylamide]
14 | 33 | – | CCC(C)(C)NC(=O)c1ccnc2[nH]c(-c3ccc(NCCN(C)C)cc3)nc12 [Example 381, 2-[4-(2-dimethylamino-ethylamino)-phenyl]-3H-imidazo[4,5-b]pyridine-7-carboxylic acid(1,1-dimethyl-propyl)-amide]
15 | 200 | – | CCSc1ccncc1NC(=O)c1ccnc2[nH]c(-c3ccc(N4CCN(C)CC4)cc3)nc12 [Example 418, 2-[4-(4-methyl-piperazin-1-yl)-phenyl]-3H-imidazo[4,5-b]pyridine-7-carboxylic acid(4-ethylsulfanyl-pyridin-3-yl)-amide]
16 | – | 3 | CCOc1ccncc1NC(=O)c1ccnc2[nH]c(-c3ccc(N4CCCC4)cc3)nc12 [Example 404, 2-(4-pyrrolidin-1-yl-phenyl)-3H-imidazo[4,5-b]pyridine-7-carboxylic acid(4-ethoxy-pyridin-3-yl)-amide]
17 | 250 | – | CCN(CC)C1CCN(c2ccc(-c3nc4c(C(=O)Nc5ccc(C)nc5)ccnc4[nH]3)cc2)C1 (centres unmarked) [Example 409, 2-[4-(3-diethylamino-pyrrolidin-1-yl)-phenyl]-3H-imidazo[4,5-b]pyridine-7-carboxylic acid(6-methyl-pyridin-3-yl)-amide]
